Data on 6 compounds can be found in paper PMC9229798, “Antioxidant Activity and Cytotoxicity of Aromatic Oligosulfides” (Molecules, 2022).

Series [1] is described as follows: LOOH accumulation in non-enzymatic peroxide oxidation of oleic acid. As to conditions: 65 °C; for LOOH, k0/k1 (relative rate constant of LOOH formation): 1 mmol/L additive, 3 h. As for the experimental part:
The total antioxidant activity of compounds 1–6 during the oxidation of oleic acid with atmospheric oxygen at 65 °C for 3 h was determined by standard methods according to the level of accumulation of the main metabolites. Hydroperoxides as primary products (LOOH) and secondary LPO carbonyl products formed colored complexes with thiobarbituric acid (TBARS).
The kinetics of LOOH and TBARS formation was similar in the control test and in the presence of the studied compounds. The exponential kinetic curves of LOOH accumulation in oleic acid corresponded to the equation CLOOH = a × e^kt with correlation coefficients close to 1. It indicated a pseudo-first order of reaction in the substrate, inherent in a radical process with degenerate chain branching (Figure 2). The kinetic curves of secondary carbonyl products were linear and corresponded to the equation CTBARS = kt + b, with correlation coefficients close to 1 (Figure 3).
The determination of oleic acid oxidation level was performed by the kinetic measurement of the total concentration of the corresponding isomeric LOOH using iodometric titration. The oxidation of constant volume of the acid (15 mL) was carried out in a thermostatic cell using an air flow at 65 °C during 3 h. The oxidation proceeded in the conditions, the oxidation rate was independent of the air volume passing through the cell.
The concentrations of the additives were 1 mM compared with the initial concentration of LOOH in the reaction mixture. Oleic acid (1 mL), CHCl3 (12 mL), glacial AcOH (18 mL), and freshly prepared cold-saturated KI solution (1 mL) were placed in a flask and shaken for 2 min. Then distilled water (100 mL) and a 1% starch solution (1 mL) were added and the resulting mixture was immediately titrated with Na2S2O3 solution (0.01 N). Iodine released in an amount equivalent to that of LOOH was titrated with a standard thiosulfate solution. At the same time, a control test for reagents was carried out: all the reagents except for oleic acid were added to the flask. The LOOH concentration was calculated according to the following formula:
[LOOH] = [(Vs − Vc) × 0.001269 × K × 100]/m, where vs. is the volume of 0.01 N Na2S2O3 solution, consumed during the titration of working sample, mL; Vc is the volume of 0.01 N Na2S2O3 solution, consumed during the titration of control, mL; K is the conversion factor to exactly 0.01 N Na2S2O3 solution; m is the mass of studied oleic acid; and 0.001269 is the amount of I2 expressed in g, equivalent to 1 mL of 0.01 N Na2S2O3 solution. The [LOOH, mmol/L] content equal to 1% corresponded to 78.7 mM of active O2 per 1 L of lipids.

A short description of series [2]: Antiradical activity, quinoid oxidation (autoxidation) of adrenaline. Conditions: adrenaline autoxidation in alkaline buffer, compound initial 25 µM.
The next series relates to SOD. Kind of series: SOD-protective activity, cytosolic fraction of liver homogenate. The format is biochemical, Russian sturgeon. Conditions: adrenaline oxidation with biopreparation, compound initial 25 µM. The text has this: Superoxide dismutase (SOD) is present in almost all aerobic cells and extracellular fluids and is able to inhibit the accumulation of adrenochrome by intercepting O2^–•. The process of splitting O2^–• by SOD into O2 and H2O2 occurs in the body, which is facilitated by the presence of metal ions Cu, Zn, Mn and Fe, playing an important role in lipid peroxidation. […] This system is also suitable for determining the activity of the endogenous enzyme–antioxidant SOD responsible for the utilization of O2^–• [43, 44]. The reaction sequence of adrenaline autoxidation with the adrenochrome formation was described earlier.
SOD-protective activity of the biopreparation was the ability to utilize the superoxide anion radical O2^–•, as determined by the method of Sirota. A cytosolic fraction of the Russian sturgeon liver homogenate was used as the source of SOD. First, the sturgeon liver was washed with cold 0.2 M Tris (tris (hydroxymethyl) aminomethane) buffer (pH 7.8) to remove any traces of blood. All of the procedures were performed at a temperature of 0–4 °C. Next, a homogenate was obtained using a Potter homogenizer (Thomas Scientifc, Swedesboro, NJ, USA) in 0.2 M Tris buffer at a ratio of 1:10. The homogenate was then centrifuged for 10 min at 1000× g to remove partially destroyed cells and nuclei. The resulting supernatant contained the enzymes of the cytosolic fraction of the liver homogenate, including the SOD. Here, 10 µL of the biopreparation was added to a cuvette with 200 µL of bicarbonate buffer (pH 10.65), 10 µL of the tested compound (initial concentrations of these compounds 25 µM) and 10 µL of 0.1% adrenaline solution and was thoroughly and quickly mixed. The rate of adrenaline oxidation without and in the presence of the biopreparation was evaluated by the change in optical density, measured at 347 nm for 3 min. The decrease in the rate of the process in the presence of the biopreparation was used to characterize the SOD-protective activity.

Series [3] can be described thus: CUPRAC assay (cupric reducing antioxidant capacity). As to conditions: Trolox equivalents; compound 0.5 mM, 30 min. The procedure: Antioxidant activity can be evaluated by the CUPRAC test (cupric reducing antioxidant capacity) based on the ability of the compound to reduce Cu^2+ in complex with 2,9-dimethyl-1,10-phenanthroline (neocuproin). The antioxidant capacity of compounds 1–6 in the CUPRAC test was measured in equivalents of the water-soluble analogue of vitamin E—Trolox (TEACCUPRAC) (Table 2). […] The TEACCUPRAC values of disulfides 4 and 6 were quite close and indicated the manifestation of antioxidant activity mainly due to the presence of HO-groups. The slightly lower activity of compound 4 was explained by the absence of tert-butyl groups in its structure.
Neocuproine (2,9-dimethyl-1,10-phenanthroline) and Trolox were used with no further purification. The method proposed by Apak et al. was used with slight modification. For these measurements, 0.05 mL of CuCl2 solution (0.01 M), 0.05 mL of MeOH neocuproine solution (7.5 mM) and 0.05 mL of ammonium acetate buffer solution (1 M) were added to a test tube, followed by mixing with the 0.05 mL tested compounds (0.5 mM). The mixtures were kept at room temperature for 30 min. Absorbance was measured at 450 nm against a reagent blank. The results were presented in Trolox equivalents (Trolox equivalent antioxidant capacity, TEAC) obtained using absorbance data, and the linear calibration curve was plotted as absorbance vs. Trolox concentration.

The subject of the next series is MCF-7. On the set-up: method as in doi:10.3906/kim-1904-40. As to conditions: CLC-Pred, cited from earlier work; for Cytotoxicity MCF-7, Pi: probability of lack of activity; for Cytotoxicity MCF-7, Pa: probability of presence of activity.
The conditions of series [4]: ferrozine–Fe2+ complex formation; cited from earlier work.
On the set-up of series [5]: method as in doi:10.3906/kim-1904-40. As to conditions: adrenaline autoxidation in alkaline buffer; cited from earlier work.
On the set-up of series [6]: method as in doi:10.1016/j.arabjc.2021.103068. As to conditions: oleic acid, 1 mmol/L additive, 65 °C; cited from earlier work.
Details of series [7]: method as in doi:10.3906/kim-1904-40. Conditions: Trolox equivalents; cited from earlier work.

The structures appear in SMILES notation. Values joined by “and” are separate entries in the source; they are usually repeats but may differ in a detail not shown here. Equal entries are not always repeated. Where two headings read alike, the source gives them in different places.

Turning to `c1ccc(SSSc2ccccc2)cc1` [Compound 1, diphenyl trisulfide], the “LOOH, k0/k1 (relative rate constant of LOOH formation)” value in series [1] stood at 0.78 ± 0.15. For the same compound, in series [1] (after 3 h incubation of oleic acid), the “LOOH accumulation, % of inhibition” value turned out to be 22.5%. Besides, the “Antiradical Activity, % Inhibition” value in series [2] turned out to be 30 ± 1.9%. In addition, the “SOD Activity of Liver Sturgeon, % Inhibition” value (“SOD Activity … % Inhibition” for short) in the series with SOD was determined as 41 ± 2.7%. Besides, the “TEAC CUPRAC” value in series [3] was “non active”.
Regarding `COc1ccccc1SSc1ccccc1OC` [Compound 2, bis(2-methoxyphenyl) disulfide], the “LOOH, k0/k1 (relative rate constant of LOOH formation)” value in series [1] amounted to 0.86 ± 0.11. Moreover, the “Antiradical Activity, % Inhibition” value in [2] came to 50 ± 3.1%. The “SOD Activity … % Inhibition” value in the series on SOD came to 60 ± 3.3%. Moreover, the “TEAC CUPRAC” value in [3] is “non active”.
For `COc1ccc(SSc2ccc(OC)c(OC)c2)cc1OC` [Compound 3, bis(3,4-dimethoxyphenyl) disulfide], the “TEAC CUPRAC” value in series [3] is given as 0.06 ± 0.01.
With `Oc1ccc(SSc2ccc(O)cc2)cc1` [Compound 4, 4,4′-dihydroxydiphenyl disulfide], the “LOOH, k0/k1 (relative rate constant of LOOH formation)” value in [1] is reported as 0.61 ± 0.03. Also, in series [2], the “Antiradical Activity, % Inhibition” value worked out at 36 ± 2.3%. Also, the “SOD Activity … % Inhibition” value in the series on SOD is 75 ± 5.6%. For the same compound, the “TEAC CUPRAC” value in series [3] is 1.8 and 1.80 ± 0.06.
With `c1ccc(SSc2ccccc2)cc1` [Compound 5, diphenyl disulfide], in the series on MCF-7, the “Cytotoxicity MCF-7, Pi” value is on record as 0.005 and the “Cytotoxicity MCF-7, Pa” value was 0.882. Moreover, the “FIC, % of Inhibition” value in series [4] is reported as 73.7 ± 2.1 %. For the same compound, in series [5], the “Antiradical Activity, % Inhibition” value was 56 ± 2.9 %. In addition, the “TBARS, % Inhibition” value in series [6] was 24.6 ± 0.29 %. In [7], the “TEAC CUPRAC” value is given as 0.10 ± 0.01.
`CC(C)(C)c1cc(SSc2cc(C(C)(C)C)c(O)c(C(C)(C)C)c2)cc(C(C)(C)C)c1O` [Compound 6, bis(3,5-di-tert-butyl-4-hydroxyphenyl) disulfide]: in the series on MCF-7, the “Cytotoxicity MCF-7, Pi” value is 0.082 and the “Cytotoxicity MCF-7, Pa” value is 0.403. Also, the “FIC, % of Inhibition” value in series [4] is listed as 28.9 ± 1.3 %. In addition, the “Antiradical Activity, % Inhibition” value in series [5] is on record as 37 ± 4.8 %. Besides, the “TBARS, % Inhibition” value in series [6] is 73.1 ± 1.30 %. Moreover, the “TEAC CUPRAC” value in series [7] was 2.04 ± 0.05.
